Laboratory results: US9174946B2, “Selective FAK inhibitors” (priority 2011, dated 2015)

Biological target: T1, Y397-FAK phosphorylation (Homo sapiens, UniProt Q05397)
T1 construct: endogenous in cells; host or cells: MDA-231-LNA cells
Assay type: cell-based
Conditions: not given

T1 sequence (Q05397 whole entry): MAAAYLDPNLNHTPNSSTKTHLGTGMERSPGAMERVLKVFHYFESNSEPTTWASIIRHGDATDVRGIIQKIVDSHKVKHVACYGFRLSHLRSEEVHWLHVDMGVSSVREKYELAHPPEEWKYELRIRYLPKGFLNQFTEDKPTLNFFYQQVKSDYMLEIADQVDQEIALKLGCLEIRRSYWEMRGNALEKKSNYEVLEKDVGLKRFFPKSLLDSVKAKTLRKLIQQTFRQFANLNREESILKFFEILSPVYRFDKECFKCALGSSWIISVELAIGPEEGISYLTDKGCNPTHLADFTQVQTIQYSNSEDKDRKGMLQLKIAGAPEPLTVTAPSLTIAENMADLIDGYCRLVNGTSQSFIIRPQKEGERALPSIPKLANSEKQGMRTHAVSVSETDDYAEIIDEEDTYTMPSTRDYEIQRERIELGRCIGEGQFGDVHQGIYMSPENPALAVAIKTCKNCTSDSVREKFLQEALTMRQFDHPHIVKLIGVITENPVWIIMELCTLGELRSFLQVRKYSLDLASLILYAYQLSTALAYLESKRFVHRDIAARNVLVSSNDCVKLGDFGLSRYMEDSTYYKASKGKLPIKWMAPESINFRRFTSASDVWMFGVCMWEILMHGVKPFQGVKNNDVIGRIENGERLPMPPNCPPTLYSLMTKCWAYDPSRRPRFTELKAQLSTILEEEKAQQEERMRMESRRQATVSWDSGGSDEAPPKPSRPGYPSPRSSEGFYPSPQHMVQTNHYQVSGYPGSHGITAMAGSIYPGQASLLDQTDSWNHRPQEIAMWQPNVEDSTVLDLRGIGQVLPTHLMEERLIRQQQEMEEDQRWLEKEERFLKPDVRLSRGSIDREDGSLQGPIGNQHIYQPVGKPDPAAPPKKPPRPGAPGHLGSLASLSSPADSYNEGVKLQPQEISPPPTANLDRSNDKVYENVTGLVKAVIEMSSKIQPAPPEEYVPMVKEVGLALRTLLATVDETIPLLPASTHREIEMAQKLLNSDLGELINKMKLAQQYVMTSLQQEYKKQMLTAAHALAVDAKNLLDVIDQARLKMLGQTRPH

| Compound | % response of control at 2 μM [%] |
| --- | --- |
| COc1cc(C2CCNCC2)ccc1Nc1ncc(C(F)(F)F)c(CCc2ccccc2CC(N)=O)n1 [Compound 2, 2-(2-(2-(2-((2-Methoxy-4-(piperidin-4-yl)phenyl)amino)-5-(trifluoromethyl)pyrimidin-4-yl)ethyl)phenyl)acetamide] | 91 |
| COc1cc(C2CCN(C)CC2)ccc1Nc1ncc(C(F)(F)F)c(CCc2ccccc2CC(N)=O)n1 [Compound 3, 2-(2-(2-(2-((2-Methoxy-4-(1-methylpiperidin-4-yl)phenyl)amino)-5-(trifluoromethyl)pyrimidin-4-yl)ethyl)phenyl)acetamide] | 102 |
| CCN1CCC(c2ccc(Nc3ncc(C(F)(F)F)c(CCc4ccccc4CC(N)=O)n3)c(OC)c2)CC1 [Compound 4, 2-(2-(2-(2-((4-(1-Ethylpiperidin-4-yl)-2-methoxyphenyl)amino)-5-(trifluoromethyl)pyrimidin-4-yl)ethyl)phenyl)acetamide] | 108 |
| COc1cc(C2CCN(C)CC2)ccc1Nc1ncc(C(F)(F)F)c(CCc2cccc(C(N)=O)c2)n1 [Compound 6, 3-(2-(2-((2-Methoxy-4-(1-methylpiperidin-4-yl)phenyl)amino)-5-(trifluoromethyl)pyrimidin-4-yl)ethyl)benzamide] | 80 |
| NC(=O)Cc1ccccc1CCc1nc(Nc2ccc(C3CCNCC3)cc2OC(F)(F)F)ncc1C(F)(F)F [Compound 10, 2-(2-(2-(2-((4-(Piperidin-4-yl)-2-(trifluoromethoxy)phenyl)amino)-5-(trifluoromethyl)pyrimidin-4yl)ethyl)phenyl)acetamide] | 116 |
| CN1CCC(c2ccc(Nc3ncc(C(F)(F)F)c(CCc4ccccc4CC(N)=O)n3)c(OC(F)(F)F)c2)CC1 [Compound 11, 2-(2-(2-(2-((4-(1-Methylpiperidin-4-yl)-2-(trifluoromethoxy)phenyl)amino)-5-(trifluoromethyl)pyrimidin-4-yl)ethyl)phenyl)acetamide] | 117 |
| CN1CCC(c2ccc(Nc3ncc(C(F)(F)F)c(CCc4ccccc4CC(N)=O)n3)c(F)c2)CC1 [Compound 13, 2-(2-(2-(2-((2-Fluoro-4-(1-methylpiperidin-4-yl)phenyl)amino)-5-(trifluoromethyl)pyrimidin-4-yl)ethyl)phenyl)acetamide] | 90 |

Same assay, conditions: MDA-231-LNA cells; relative to control compound at 2 μM

| Compound | % response of control at 2 μM [%] |
| --- | --- |
| COc1cc(N2CCNCC2)ccc1Nc1ncc(C(F)(F)F)c(CCc2ccccc2CC(N)=O)n1 [Compound 1, 2-(2-(2-(2-((2-Methoxy-4-(piperazin-1-yl)phenyl)amino)-5-(trifluoromethyl)pyrimidin-4-yl)ethyl)phenyl)acetamide] | 122 |

Test system: HeyA8, SKOV3ip1, and HeyA8-MDR models
Conditions: concomitant administration of TAE226 and docetaxel, all three models; cited from earlier work

| Compound | reduction of tumour burden |
| --- | --- |
| CNC(=O)c1ccccc1Nc1nc(Nc2ccc(N3CCOCC3)cc2OC)ncc1Cl [TAE226] | 85-97% |
